Laboratory results as given in patent US12410133B2, “Crystalline (r)-5-carbamoylpyridin-3-yl-2-methyl-4-(3-(trifluoromethoxy)benzyl)piperazine-1-carboxylate, compositions and methods of use thereof” (Celgene Corporation, priority 2018, dated 2025).
In brackets after ≈: the same amount, converted by molar mass. Marks after values point to notes of the source that are not given here.

Legend:
Format in all cases: physicochemical
[1] = Accelerated solid-state stability study of Form A
Protocol: Solid-state stability evaluation (accelerated conditions) was performed on Form A under conditions of 25° C./60% RH and 40° C./75% RH. The detailed procedure utilized for stability evaluation is listed below:
1) weigh approximately 30 mg of Form A sample into each 3-mL vial;
2) cover the vial with Parafilm® and poke 15 holes on the Parafilm® with a needle;
3) put the vial in a stability chamber of 25° C./60% RH or 40° C./75% RH; and
4) sample for XRPD, TGA, DSC, HPLC purity and assay tests after 2, 4 and 6 weeks and 3 months.

[2] = Log D7.4 by shake-flask method (pH 7.4 phosphate buffer and n-octanol); conditions: n-octanol/pH 7.4 phosphate buffer
Protocol: (§1) A summary of baseline solid state characterization results of crystalline (R)-5-carbamoylpyridin-3-yl-2-methyl-4-(3-(trifluoromethoxy)benzyl)piperazine-1-carboxylate Form A, including pKa, partition coefficient (log D7.4) measurement and 2-hrs equilibrium solubility in FaSSIF and FeSSIF (version 2) are provided herein. […] Log D7.4 was measured with the solvent system of pH 7.4 phosphate buffer and n-octanol by shake-flask method. Meanwhile, 2-hrs equilibrium solubility of (R)-5-carbamoylpyridin-3-yl-2-methyl-4-(3-(trifluoromethoxy)benzyl)piperazine-1-carboxylate in FaSSIF and FeSSIF (version 2) was measured to be 0.12 and 0.080 mg/mL.

[3] = 2-hrs equilibrium solubility in FaSSIF and FeSSIF (version 2); conditions: thermodynamic from solid
Protocol: as §1

[4] = Solubility of Form A in physiologically relevant media (37° C.)

In the case of `C[C@@H]1CN(Cc2cccc(OC(F)(F)F)c2)CCN1C(=O)Oc1cncc(C(N)=O)c1` [Form A, (R)-5-carbamoylpyridin-3-yl-2-methyl-4-(3-(trifluoromethoxy)benzyl)piperazine-1-carboxylate], the Crystal form ([1]; 4 weeks, 25° C./60% RH) is reported as “Form A”, the “HPLC Purity” value ([1]; 4 weeks, 25° C./60% RH) is reported as 99.86 area % and the “Imp.1 (RRT 0.81)” value ([1]; 4 weeks, 25° C./60% RH) is reported as 0.07 % Area. The “Imp.2 (RRT 1.04)” value ([1]; 4 weeks, 25° C./60% RH) was “— (—: <0.05.)”, the “Imp.3 (RRT 1.74)” value ([1]; 4 weeks, 25° C./60% RH) was 0.07 % Area and the “API (RRT 1.00)” value ([1]; 4 weeks, 40° C./75% RH) was 99.86 % Area. For the same compound, the “Assay vs. 5° C. control” value ([1]; 4 weeks, 40° C./75% RH) was 101.3%, the Crystal form ([1]; 4 weeks, 40° C./75% RH) was “Form A” and the “HPLC Purity” value ([1]; 4 weeks, 40° C./75% RH) was 99.86 area %. For the same compound, the “Imp.1 (RRT 0.81)” value ([1]; 4 weeks, 40° C./75% RH) was 0.07 % Area, the “Imp.2 (RRT 1.04)” value ([1]; 4 weeks, 40° C./75% RH) was “— (—: <0.05.)” and the “Imp.3 (RRT 1.74)” value ([1]; 4 weeks, 40° C./75% RH) was 0.07 % Area. The “API (RRT 1.00)” value ([1]; 6 weeks, 25° C./60% RH) was 99.86 % Area, the “Assay vs. 5° C. control” value ([1]; 6 weeks, 25° C./60% RH) was 99.7% and the Crystal form ([1]; 6 weeks, 25° C./60% RH) was “Form A”. For the same compound, the “HPLC Purity” value ([1]; 6 weeks, 25° C./60% RH) was 99.86 area %, the “Imp.1 (RRT 0.81)” value ([1]; 6 weeks, 25° C./60% RH) was 0.07 % Area and the “Imp.2 (RRT 1.04)” value ([1]; 6 weeks, 25° C./60% RH) was “— (—: <0.05.)”. The “Imp.3 (RRT 1.74)” value ([1]; 6 weeks, 25° C./60% RH) was 0.07 % Area, the “API (RRT 1.00)” value ([1]; 6 weeks, 40° C./75% RH) was 99.86 % Area and the “Assay vs. 5° C. control” value ([1]; 6 weeks, 40° C./75% RH) was 99.2%. For the same compound, the Crystal form ([1]; 6 weeks, 40° C./75% RH) was “Form A”, the “HPLC Purity” value ([1]; 6 weeks, 40° C./75% RH) was 99.86 area % and the “Imp.1 (RRT 0.81)” value ([1]; 6 weeks, 40° C./75% RH) was 0.07 % Area. For the same compound, the “Imp.2 (RRT 1.04)” value ([1]; 6 weeks, 40° C./75% RH) was “— (—: <0.05.)”, the “Imp.3 (RRT 1.74)” value ([1]; 6 weeks, 40° C./75% RH) was 0.07 % Area and the “Physical and chemical stability under accelerated conditions” value ([1]; 25° C./60% RH and 40° C./75% RH for 3 months) was “good physical and chemical stability”. For the same compound, the “API (RRT 1.00)” value ([1]; Initial) was 99.86 % Area, the Crystal form ([1]; Initial) was “Form A” and the “HPLC Purity” value ([1]; Initial) was 99.86 area %. The “Imp.1 (RRT 0.81)” value ([1]; Initial) was 0.09 % Area, the “Imp.2 (RRT 1.04)” value ([1]; Initial) was “— (—: <0.05.)” and the “Imp.3 (RRT 1.74)” value ([1]; Initial) was 0.05 % Area. For the same compound, the “Chiral Purity” value ([1]; Initial, starting material after stored at −20° C. for about 3 months) was 100*, the “Form change or HPLC purity decrease” value ([1]; after 3 months at both conditions (25° C./60% RH and 40° C./75% RH)) was “no significant form change or HPLC purity decrease was observed” and the logD [2] was 3.76. The solubility thermodynamic at 2 h ([3]; FaSSIF (version 2), fassif) was 120 µg/mL (≈ 274 µM), the solubility thermodynamic at 2 h ([3]; FeSSIF (version 2), fessif) was 80 µg/mL (≈ 182 µM) and the solubility ([4]; HCl/NaCl buffer pH 1.0, simulated gastric fluid, thermodynamic from solid, pH 1.0 HCl/NaCl buffer, final measured pH 1.47) was over 20000 µg/mL. For the same compound, the solubility ([4]; acetate buffer pH 4, aqueous buffer, thermodynamic from solid, pH 4 Acetate buffer, final measured pH 4.18) was 696 µg/mL (≈ 1590 µM), the solubility ([4]; acetate buffer pH 5, aqueous buffer, thermodynamic from solid, pH 5 Acetate buffer, final measured pH 5.14) was 91 µg/mL (≈ 208 µM) and the solubility ([4]; aqueous buffer, thermodynamic from solid, pH 4 (0.0001N HCl), final measured pH 7.78) was 11 µg/mL (≈ 25.1 µM). The solubility ([4]; pH 4.9, aqueous buffer, thermodynamic from solid, pH 3 (0.001N HCl), final measured pH 4.90) was 57 µg/mL (≈ 130 µM), the solubility ([4]; pH 8.1, thermodynamic from solid, Water, final measured pH 8.10) was 12 µg/mL (≈ 27.4 µM) and the solubility ([4]; phosphate buffer pH 2.5, aqueous buffer, thermodynamic from solid, pH 2.5 Phosphate buffer, final measured pH 3.44) was 4330 µg/mL (≈ 9870 µM). For the same compound, the solubility ([4]; phosphate buffer pH 3, pH 4.2, aqueous buffer, thermodynamic from solid, pH 3 Phosphae buffer, final measured pH 4.20) was 1250 µg/mL (≈ 2850 µM), the solubility ([4]; phosphate buffer pH 6.8, aqueous buffer, thermodynamic from solid, pH 6.8 Phosphate buffer, final measured pH 6.88) was 7 µg/mL (≈ 16 µM) and the solubility ([4]; phosphate buffer pH 8.0, pH 8.1, aqueous buffer, thermodynamic from solid, pH 8.0 Phosphate buffer, final measured pH 8.10) was 5 µg/mL (≈ 11.4 µM). For the same compound, the solubility ([4]; simulated gastric fluid, thermodynamic from solid, SGF with pepsin, final measured pH 1.75) was over 20000 µg/mL, the solubility ([4]; simulated gastric fluid, thermodynamic from solid, pH 1 (0.1N HCl), final measured pH 1.48) was over 20000 µg/mL and the solubility ([4]; simulated gastric fluid, thermodynamic from solid, pH 2 (0.01N HCl), final measured pH 3.55) was 3860 µg/mL (≈ 8800 µM). The solubility ([4]; thermodynamic from solid, FaSSIF, final measured pH 6.48) was 146 µg/mL (≈ 333 µM) and the solubility ([4]; thermodynamic from solid, FeSSIF, final measured pH 5.17) was 1020 µg/mL (≈ 2320 µM).
